Values quoted from earlier work as cited in US20060110477A1, “Composition and method for supporting and promoting healthy sexual function and prevention and treatment of sexual dysfunction” (priority 2004, published 2006).

Target: rat cGMP-specific PDE5 (Rattus norvegicus, UniProt O54735)

relative potency against cGMP PDE5 (among the flavonols in the ethyl acetate fraction): most potent
IC50 ratio PDE4/PDE5 (selectivity between PDE isoforms): 196.2
SMILES: COc1cc(O)c(CC=C(C)C)c2oc(-c3ccc(O)cc3)c(O)c(=O)c12 [sophoflavescenol]
